Measurements reported in PMC9046208, “Foldamers reveal and validate therapeutic targets associated with toxic α-synuclein self-assembly” (Nature Communications, 2022).

Assays:
[1] = test system: HEK cells expressing αS-A53T-YFP; assay: Inclusion count by confocal imaging, HEK cells αS-A53T-YFP; type: cell-based; details: αS fibers 7 μM aggregated with equimolar SK-129, 24 h
Procedure: The Lipofectamine solution (Lipofectamine+P3000 reagent, Thermo Fisher Scientific, Waltham, MA) was diluted to a ratio of 1:20 (v,v) in the OptiMEM (Fisher Scientific, Pittsburgh, PA) media. Simultaneously, the αS fiber solution (Stock solution conc. = 100 μM) was diluted in OptiMEM media to the desired conc. used for each assay. The αS fiber solution was sonicated for 10 min at r.t., followed by the addition of the Lipofectomine solution (in the OptiMEM media) at 1:1 ratio. Subsequently, this solution was incubated for another 10 min and then added to the HEK cells media with a dilution factor of 10 (10 μL of the combined αS fiber solution+Lipofectomine solution, in 90 μL HEK cells media). […]
We used confocal microscopy imaging to manually count the endogenous inclusions (of αS-A53T-YFP and αS-YFP). […] The counting of inclusions was carried out for six different experiments and for each experiment, 100 cells were counted from at least four different locations from the eight-well plate. The cells were counted manually by counting the number of Hoechst 33342 dye-stained nuclei in the cells. Also, the inclusions in the cells were counted manually at different locations in the eight-well plate.

[2] = target: Aβ42 aggregation (Homo sapiens, UniProt P05067); assay: ThT aggregation assay, Aβ42; type: biochemical; details: equimolar ratio
Sequence of Aβ42 aggregation (P05067 672-713 limits assumed): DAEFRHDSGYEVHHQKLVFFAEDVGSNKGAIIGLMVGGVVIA
Procedure: The aggregation kinetics of αS was monitored using ThT fluorescence assay (λex = 450 nm and λem = 485 nm). To study the aggregation kinetics of αS, the ThT dye at a final concentration of 50 μM was added to 100 μM αS solution in the aggregation buffer (1 x PBS buffer) with and without various concentrations of SK-129 in a Costar black 96–well plate (Corning Inc., Kennebunk, ME). The small molecules were dissolved in dimethyl sulfoxide (DMSO; final DMSO concentration = 0.5%, v/v). The final volume in each well was 140 μL. The plate was incubated at 37 °C with 16 min shaking (434 rpm) and 44 min without shaking in an Infinite M200PRO plate reader (Tecan, Männedorf, Switzerland) and fluorescence was recorded after every hour. We used two methods to quantify the effect of molecules on the aggregation of αS; either we have reported the t50 (time required to reach 50% fluorescence of ThT), which was extracted by fitting the ThT curve as a sigmoidal fit or the absolute ThT fluorescence intensity was reported. […] In the second method, we determined the final ThT fluorescence intensity for the aggregation of αS/Aβ42(with or without ligands) as an average of three separate experiments. […]
The data were expressed as mean and the error bars report the s.e.m. […]

COC(=O)c1cc(OCC(=O)O)c2cccc(NC(=O)c3cc(OC(C)C)c4cccc(NC(=O)c5cc(OCC(=O)O)c6cccc(NC(=O)c7cc(OC(C)C)c8cccc([N+](=O)[O-])c8n7)c6n5)c4n3)c2n1 [SK-129]
inclusions (αS-A53T-YFP or αS-YFP) [1]: A very small number of inclusions | effect on Aβ aggregation [2]: did not show any noticeable effect
